One experiment concerns rat DRG neurons. As to the kind of experiment: Inhibition of gp120-mediated CGRP-release from rat DRG neurons (Method B). The note with it: for inhibition of gp120-mediated CGRP release from DRG neurons: result in words; for IC50: Rattus norvegicus, DRG neuron.
The next experiment relates to HIV patients. The following applies: cited from earlier work; for efficacy in clinical trails investigating HIV-mediated neuropathic pain: Shlay et al. (1998), Kieburtz et al. (1998).
Experiment [1] deals with rat sciatic nerve. As to the kind of experiment: CGRP-release from isolated rat sciatic nerve upon stimulation (Method C). The note with it: Capsaicin 100 nM, t0-t5 stimulation period.
Experiment [2] has as its system rat sciatic nerve. The experiment in a line: gp120-mediated CGRP release from rat sciatic nerve in the presence or absence of VR1 inhibitors (Method C). The following applies: for block of CGRP release from gp120-stimulated sciatic nerve: result in words; for CGRP release: gp120 250 pg/ml in the presence of CAZ (1 µM) or Cpd. 1 (20 nM).
Protocol: After 5 min, 10 min and 20 min supernatant was substituted with fresh solution or RAB buffer pH 7.4 and the samples placed on ice until analysis. All samples were analyzed by EIA for CGRP release and normalized by the dry weight of the particular sciatic nerve.
Male Wistar rats (180-220 g) are anesthetized using Isofluran, Dinitricoxide and Oxygen (5:68:27 (v/v/v)) in a vaporisator. The hind legs are shaved and opened along the femur. Using tweezers and scissors the Musculus gluteus superficialis and Musculus bicepsfemoris are separated gaining access to the Nervus ischiadicus. The Nervus ischiadicus is cut proximally 1 cm before entry into the spine and laterally at the branching of Nervus fibularis and Nervus tibialis. […] The fixed nerve is transferred to a 1.5 ml eppendorf tube containing 300 µl RAB, pH 7.4 at RT.
To reset all samples, sciatic nerve preparations are transferred 5 min prior to stimulation to fresh 300 µl of RAB pH 7.4 (prestimulation ― point zero). Stimulation is performed for 5 or 10 min with Capsaicin solution (100 nM Capsaicin in RAB pH 7.4), RAB pH 4.5 or preheated RAB pH 7.4 (50°C) in the presence or absence of inhibitors. To evaluate post-stimulation CGRP-release sciatic nerve preparations are transferred in 5-min-intervals to fresh tubes containing RAB pH 7.4. Supernatants of each sample are transferred to EIA plates (CGRP Release Kit, SpiBio, Paris, France) and analyzed in triplicate (3 x 100µl) according to the manufacterer's protocol. Upon completion of the experiment the sciatic nerve preparations are carefully removed from the spatula, dried on 3MM paper and weighed. CGRP concentrations obtained from the CGRP-release EIA are finally normalized to the dry weight of the sciatic nerve preparations.

As to `CC(C)Cc1ccc(C(C)C(=O)O)cc1` (centres unmarked) [Ibuprofen], the “inhibition of gp120-mediated CGRP release from DRG neurons” value (shortened to “inhibition”) with rat DRG neurons is “can not inhibit”.
Consider `COc1cccc(-c2cc(=O)c3ccccc3o2)c1N` [PD98059], for which, in the experiment with rat DRG neurons, the IC50 (commonly the concentration that inhibits the measured activity by half) is 9.36 nM and the “inhibition” value is “completely inhibited”.
Regarding `Cc1cccc(C)c1OCC(C)N` (centres unmarked) [Mexiletine], in the experiment on HIV patients, the “efficacy in clinical trails investigating HIV-mediated neuropathic pain” value is “completely ineffective”.
Take `COc1cc(CNC(=O)CCCC/C=C/C(C)C)ccc1O` [CAPS, Capsaicin]: the CGRP-release with rat sciatic nerve [1] (time 0 min) is on record as 0.05923 ng/mg ng CGRP/mg nerve dry weight; with rat sciatic nerve [1] (time 5 min) it was 5.9+/-1.3 ng/mg ng CGRP/mg nerve dry weight; with rat sciatic nerve [1] (time 10 min), 5.3+/-0.2 ng/mg ng CGRP/mg nerve dry weight; with rat sciatic nerve [1] (time 20 min) it was 4.0+/-0.1 ng/mg ng CGRP/mg nerve dry weight; in the experiment on rat sciatic nerve [1] (time -5 min), 0 ng CGRP/mg nerve dry weight. In addition, the “pain in HIV patients with chronic DSP” value in the experiment with HIV patients (randomized, double-masked clinical trail, Paice et al. (2000)) is “strongly increased pain”.
Turning to `N#CC(=C(/N)Sc1ccccc1N)/C(C#N)=C(\N)Sc1ccccc1N` [Compound U0126], in the experiment on rat DRG neurons, the IC50 was determined as 1.9 nM and the “inhibition” value is “completely inhibited”.
Regarding `Oc1cc2c(cc1O)CN(C(=S)NCCc1ccc(Cl)cc1)CCC2` [CAZ, Capsazepin], in the experiment with rat sciatic nerve [2], the “block of CGRP release from gp120-stimulated sciatic nerve” value is “capable to block CGRP release”. For the same molecule, in the experiment with rat DRG neurons, the IC50 is 109 nM and the “inhibition” value was “completely inhibited”.
With `C[S+]([O-])c1ccc(-c2nc(-c3ccncc3)c(-c3ccc(F)cc3)[nH]2)cc1` (centres unmarked) [SB203580], the “inhibition” value in the experiment with rat DRG neurons is reported as “completely inhibited”.
On to `O=C(NCc1ccc(OC(F)(F)F)cc1)Nc1cccc2c1CC(O)CC2` (centres unmarked) [Cpd. Example 1, N-(7-hydroxy-5,6,7,8-tetrahydro-naphthalen-1-yl)-N'-(4-trifluoromethoxy-benzyl)-urea], for which the CGRP release in the experiment with rat sciatic nerve [2] (time 0 min), with rat sciatic nerve [2] (time 5 min), with rat sciatic nerve [2] (time 10 min), in the experiment on rat sciatic nerve [2] (time 20 min) and with rat sciatic nerve [2] (time -5 min) was 0 in each case. Besides, in the experiment with rat sciatic nerve [2], the “block of CGRP release from gp120-stimulated sciatic nerve” value is recorded as “capable to block CGRP release”. The molecule further came in with a concentration for half-maximal inhibition (IC50) in the experiment with rat DRG neurons of 0.44 nM. Further, the “inhibition” value with rat DRG neurons was “completely inhibited”.
For the molecule `CC(Cc1ccc(O)c(O)c1)C(C)Cc1ccc(O)c(O)c1` (centres unmarked) [NGDA, Nordihydroguaiaretic Acid], in the experiment with rat DRG neurons, the IC50 is 43000 nM and the “inhibition” value is listed as “completely inhibited”.
The matching figures for `CCN(CC)CCCC(C)Nc1c2ccc(Cl)cc2nc2ccc(OC)cc12` (centres unmarked) [QN, Quinacrine]: 1530 nM and “completely inhibited”.
For `CN(C)CCC=C1c2ccccc2CCc2ccccc21` [Amitriptyline], the “efficacy in clinical trails investigating HIV-mediated neuropathic pain” value in the experiment on HIV patients was “completely ineffective”.

The values above are taken from patent EP1493438A1, “Vanilloid receptor (VR) inhibitors for treatment of Human Immunodeficiency Virus (HIV)-mediated pain states” (Bayer HealthCare AG, priority 2003, dated 2005).
